Assay results as given in patent publication US10633630B2, “Acceleration of Mycobacterium growth” (ST GEORGE'S HOSPITAL MEDICAL SCHOOL, priority 2014, dated 2020).
Non-standard residues stand in square brackets, D forms with d. No end group written: not given here. βAla = NCCC(=O)O

Key:
[1] = tested on: Mycobacterium avium subspecies paratuberculosis (MAP); test: Screen of TiKa peptide supplements for growth effects on MAP cultures (Example 1); assay type: cell-based; conditions: supplemented at 20 mg/ml (final); over a 20 day period; vs identical inocula with no added supplement
Experimental: FX1=reduction in lag phase, FX2=increase in division rate.
The lag phase and division rate can be determined using routine methods in the art. Typically, growth and expansion of cells of a bacterial culture is determined by monitoring the optical density (OD) of the culture (e.g. the OD600 or the OD800 as illustrated in the Examples section below). The lag phase and the division rate can be determined from plots of the OD over time.
Using Mycobacterium avium subspecies paratuberculosis (MAP) as a target organism a bank of 109 short L enantiomer peptides and one D enantiomer peptide (TiKa 14D) were screened for the ability to supplement defined media (see below) to produce growth effects that produce biomass more rapidly than identical inocula of MAP with no added supplement.
The effects can be defined as: • A significant decrease in lag time (i.e the time it takes to recover from subculture and begin growing exponentially). With standard low inoculum this is at least 5 days but there is evidence that this phase can also be greatly extended in low inocula (see FIGS. 3 and 4). • An increase in division rate.

[2] = Growth curves at various concentrations of peptide (Example 5); assay type: cell-based; conditions: for doubling time relative to the control / lag phase relative to the control without supplement: above the optimum concentration; for effects on the rate of division: below the optimum concentration; for optimum concentration of supplement: concentrations up to 80 μg/ml tested
Experimental: Part (A) presents results for the TiKa 14D peptide and part (B) presents results for the TiKa 102 peptide.
TiKa 14D and TiKa 102 were tested to identify the optimum concentration of supplement. Results are presented in FIGS. 5A and B for concentrations up to 80 μg/ml. […] Below the optimum concentration, the lag phase was either not affected (10 μg/ml of TiKa 14D) or was inhibited relative to the control (slightly for TiKa 14D at 5 μg/ml and for TiKa 102 at 20 μg/ml).

[3] = tested on: Mycobacterium tuberculosis
MTB = test: Time to positivity in BacTAlert liquid media system (Example 4); assay type: cell-based
[4] = tested on: cultures with different starting OD600 values; test: Effects of TiKa 14D on cultures with different starting OD600 values (Example 3); assay type: cell-based; conditions: 20 μg/ml
Experimental: The effects of TiKa 14D on cultures with different starting OD600 values were tested. The TiKa 14D was present at a concentration of 20 μg/ml.
As shown in this Figure, at a starting OD600 of 0.2 TiKa 14D reduced the time to reach an OD600 of 0.6 by 7 days relative to a control without the supplement. At a starting OD600 of approximately 0.4, TiKa 14D reduced the time to reach an OD600 of 0.6 by 2 days relative to the control without the supplement.

[5] = tested on: Mycobacterium avium subspecies paratuberculosis; assay type: cell-based; conditions: TiKa 14D 20 μg/ml

Row | Substance | effect on MAP test culture (decrease in lag time, increase in division rate) [1] | doubling time relative to the control [2] | lag phase relative to the control without supplement [2] | effects on the rate of division [2] | optimum concentration of supplement [2] [µg/mL] | also measured
1 | RLARIVVIRVAR-BB-K(biotin) [TiKa 103] | positive effects |  |  |  |  | 
2 | RRWRIVVIRVRR [TiKa 69] | positive effects |  |  |  |  | 
3 | RRWRIVVIRVRR-BB-K(biotin) [TiKa 102] | positive effects | still also reduced | still improved | decreased proportionally | 40 | lag phase relative to the control ([2]; below the optimum concentration: 20 μg/ml): inhibited
4 | RRWRIVVIRVRR-bA-bA-C (RRWRIVVIRVRR[βAla][βAla]C) [TiKa 86] | positive effects |  |  |  |  | 
5 | WKIVFWWRR [TiKa 14D] | positive effects | still also reduced | still improved | decreased proportionally | 20 | effect on growth curve [3]: positive effects; Time to Positivity (TTP) compared to control media (MTB): decreased; reduction of the time to reach an OD600 of 0.6 relative to a control without the supplement ([4]; starting OD600 of 0.2): 7 days; reduction of the time to reach an OD600 of 0.6 relative to a control without the supplement ([4]; starting OD600 of approximately 0.4): 2 days; lag phase relative to the control ([2]; below the optimum concentration: 5 μg/ml): inhibited; lag phase relative to the control ([2]; below the optimum concentration: 10 μg/ml): not affected; effect on growth curve [5]: positive effects
